Laboratory results published in patent publication US4061740A, “Liquid compositions containing a polyethylene glycol safener and an organophosphorus pesticide” (priority 1976, dated 1977).

Tested on: Root-knot Nematode (Meloidogyne incognita)
Assay: Control of root-knot nematode on tomato in the greenhouse
Format: in vivo, Meloidogyne incognita (on tomato, Lycopersicon esculentum)
Excerpt: Evaluation of a liquid formulation consisting of a solution of 2-diethoxyphosphinylimino-1,3-dithietane in polyethylene glycol for the control of root-knot nematode (Meloidogyne incognita) on tomato in the greenhouse.
1. 2-Diethoxyphosphinylimino-1,3-dithietane, 91% real. (Active ingredient; a.i.)
2. Liquid formulation consisting of 20.9%, by weight, of a.i. and 79.1%, by weight, of polyethylene glycol of an average molecular weight of 400.
Tomato (Lycopersicon esculentum; Cv. Bonny Best).
Root-knot Nematode (Meloidogyne incognita) inoculum. [formula] 2-Diethoxyphosphinylimino-1,3-dithietane at 0.75 mg, 1.5 mg and 3.0 mg/liter of soil. Polyethylene glycol blank at 14.4 mg/liter of soil.
All compounds are made up as acetone solutions. One liter of moist potting soil is placed in a suitable stainless steel beaker. One ml of candidate solution is distributed, drop by drop, over the surface of the soil. The beaker is then capped and placed on an off-center rotary mixer and mixed for 2 minutes (about 60 revolutions). After mixing, the soil is divided between two 0.5 liter paper cups by filling the cups half full of soil, then distributing 25 ml root-knot nematode inoculum on the soil and filling the remainder of the container with treated soil. Seedling tomato plants are transplanted into the cups of soil the same day, watered and removed to the greenhouse. After about 4 weeks, the tomato plants are carefully removed from the containers, the soil washed from the roots, and the roots are then examined for nematode galling.
The roots are indexed for galling by the following system: […]

Question: For `CCOP(=O)(N=C1SCS1)OCC` [Formulation 1, 2-Diethoxyphosphinylimino-1,3-dithietane], which “Root-knot index, Average of 3 Replicates” value (0.75 mg/l active ingredient) is on record?
Answer: The value was 7.0.

Question: And the Root-knot index (0.75 mg/l active ingredient, replicate 1)?
Answer: The Root-knot index was 8 (61-70% of roots galled).

Question: What about the Root-knot index (0.75 mg/l active ingredient, replicate 2) of the same compound?
Answer: Its Root-knot index is 8 (61-70% of roots galled).

Question: And the Root-knot index (0.75 mg/l active ingredient, replicate 3)?
Answer: The Root-knot index was 5 (31-40% of roots galled).

Question: What about the “protection of the tomato roots from the root-knot nematode” value (“protection of the tomato roots” for short) (0.75 mg/l of soil) of the same compound?
Answer: The value was “poor”.

Question: What about the “Root-knot index, Average of 3 Replicates” value (1.5 mg/l active ingredient) of the same compound?
Answer: Its value is 4.7.

Question: And the Root-knot index (1.5 mg/l active ingredient, replicate 1)?
Answer: Its Root-knot index is 6 (41-50% of roots galled).

Question: What about the Root-knot index (1.5 mg/l active ingredient, replicate 2) of the same compound?
Answer: The Root-knot index was 6 (41-50% of roots galled).

Question: And the Root-knot index (1.5 mg/l active ingredient, replicate 3)?
Answer: The Root-knot index was 2 (6-10% of roots galled).

Question: What about the “protection of the tomato roots” value (1.5 mg/l of soil) of the same compound?
Answer: The value was “poor”.

Question: And the Root-knot index (3.0 mg/l active ingredient, replicate 1)?
Answer: Its Root-knot index is 0.

Question: What about the Root-knot index (3.0 mg/l active ingredient, replicate 2) of the same compound?
Answer: Its Root-knot index is 0.

Question: What about the Root-knot index (3.0 mg/l active ingredient, replicate 3) of the same compound?
Answer: Its Root-knot index is “T (less than 1% of roots with galls.)”.

Question: What about the “protection of the tomato roots” value (3.0 mg/l of soil) of the same compound?
Answer: Its value is “excellent”.
